Data reported in ChEMBL document CHEMBL1201862, “PubChem BioAssay data set” (2004).
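The compound was tested at five concentrations on cells cultured in 96-well plates, with a 48-hour exposure period. The concentration for 50% growth inhibition is given as GI50.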 The source made the active and inactive calls. Rule as the data show it: active = GI50 up to about 1.1 µM and inactive = higher.

What was measured:
Test in all cases: inhibition of tumour cell growth, NCI panel, 48 h
786-0 = test system: 786-0
A498 = test system: A498
ACHN = test system: ACHN
CAKI-1 = test system: CAKI-1
CCRF-CEM = test system: CCRF-CEM
DU-145 = test system: DU-145
EKVX = test system: EKVX
HCC 2998 = test system: HCC 2998
HCT-116 = test system: HCT-116
HCT-15 = test system: HCT-15
HL-60 = test system: HL-60
HOP-62 = test system: HOP-62
HOP-92 = test system: HOP-92
HT-29 = test system: HT-29
Hs-578T = test system: Hs-578T
IGROV-1 = test system: IGROV-1
K562 = test system: K562
KM12 = test system: KM12
LOX IMVI = test system: LOX IMVI
M14 = test system: M14
MCF7 = test system: MCF7
MDA-MB-231 = test system: MDA-MB-231
MDA-MB-435 = test system: MDA-MB-435
MDA-N = test system: MDA-N
MOLT-4 = test system: MOLT-4
NCI-H226 = test system: NCI-H226
NCI-H23 = test system: NCI-H23
NCI-H460 = test system: NCI-H460
NCI-H522 = test system: NCI-H522
NCI/ADR-RES = test system: NCI/ADR-RES
OVCAR-3 = test system: OVCAR-3
OVCAR-4 = test system: OVCAR-4
OVCAR-5 = test system: OVCAR-5
OVCAR-8 = test system: OVCAR-8
PC-3 = test system: PC-3
RPMI-8226 = test system: RPMI-8226
RXF 393 = test system: RXF 393
SF-268 = test system: SF-268
SF-295 = test system: SF-295
SF-539 = test system: SF-539
SK-MEL-28 = test system: SK-MEL-28
SK-MEL-2 = test system: SK-MEL-2
SK-MEL-5 = test system: SK-MEL-5
SK-OV-3 = test system: SK-OV-3
SR = test system: SR
SW-620 = test system: SW-620
T47D = test system: T47D
TK-10 = test system: TK-10
U-251 = test system: U-251
UACC-257 = test system: UACC-257
UO-31 = test system: UO-31
A549 = test system: A549
COLO 205 = test system: COLO 205
Malme-3M = test system: Malme-3M
SN12C = test system: SN12C
SNB-19 = test system: SNB-19
SNB-75 = test system: SNB-75
UACC-62 = test system: UACC-62

SMILES: CC1=NN(c2cccc(Cl)c2)C2(C1=Cc1ccc(N(C)C)cc1)C(Cl)C(=O)N2c1nc2ccccc2s1 (stereo not given)
- GI50 (786-0): 43.1 µM (inactive)
- GI50 (A498): 36.3 µM (inactive)
- GI50 (ACHN): 53.2 µM (inactive)
- GI50 (CAKI-1): 72.9 µM (inactive)
- GI50 (CCRF-CEM): 50.5 µM (inactive)
- GI50 (DU-145): 97.5 µM (inactive)
- GI50 (EKVX): > 100 µM (inactive)
- GI50 (HCC 2998): 17.8 µM (inactive)
- GI50 (HCT-116): 60 µM (inactive)
- GI50 (HCT-15): 77.4 µM
- GI50 (HL-60): > 100 µM (inactive)
- GI50 (HOP-62): 17.8 µM (inactive)
- GI50 (HOP-92): 18.6 µM (inactive)
- GI50 (HT-29): 25.5 µM (inactive)
- GI50 (Hs-578T): 23.5 µM (inactive)
- GI50 (IGROV-1): 40.7 µM (inactive)
- GI50 (K562): 56.9 µM (inactive)
- GI50 (KM12): 3.95 µM (inactive)
- GI50 (LOX IMVI): > 100 µM (inactive)
- GI50 (M14): 18.7 µM (inactive)
- GI50 (MCF7): 70.5 µM (inactive)
- GI50 (MDA-MB-231): 46.8 µM (inactive)
- GI50 (MDA-MB-435): 6.18 µM (inactive)
- GI50 (MDA-N): 63.7 µM (inactive)
- GI50 (MOLT-4): 74 µM (inactive)
- GI50 (NCI-H226): > 100 µM (inactive)
- GI50 (NCI-H23): 45.5 µM (inactive)
- GI50 (NCI-H460): > 100 µM (inactive)
- GI50 (NCI-H522): 19.1 µM (inactive)
- GI50 (NCI/ADR-RES): 63.5 µM (inactive)
- GI50 (OVCAR-3): 39.5 µM (inactive)
- GI50 (OVCAR-4): 24.2 µM (inactive)
- GI50 (OVCAR-5): > 100 µM (inactive)
- GI50 (OVCAR-8): 73.3 µM (inactive)
- GI50 (PC-3): > 100 µM (inactive)
- GI50 (RPMI-8226): 41 µM (inactive)
- GI50 (RXF 393): 20.3 µM (inactive)
- GI50 (SF-268): 20.3 µM (inactive)
- GI50 (SF-295): 67.1 µM (inactive)
- GI50 (SF-539): 49.1 µM (inactive)
- GI50 (SK-MEL-28): > 100 µM (inactive)
- GI50 (SK-MEL-2): 60.3 µM (inactive)
- GI50 (SK-MEL-5): 49.1 µM (inactive)
- GI50 (SK-OV-3): 34.4 µM (inactive)
- GI50 (SR): > 100 µM (inactive)
- GI50 (SW-620): 19.6 µM (inactive)
- GI50 (T47D): 50.8 µM (inactive)
- GI50 (TK-10): 76.4 µM (inactive)
- GI50 (U-251): 53.7 µM (inactive)
- GI50 (UACC-257): > 100 µM (inactive)
- GI50 (UO-31): > 100 µM (inactive)

SMILES: CCOC(=O)NC(N(C)C(C(C)C)P(=O)(OCC)OCC)(C(F)(F)F)C(F)(F)F (stereo not given)
- GI50 (786-0): > 100 µM (inactive)
- GI50 (A498): > 100 µM (inactive)
- GI50 (A549): > 100 µM (inactive)
- GI50 (ACHN): > 100 µM (inactive)
- GI50 (CAKI-1): > 100 µM (inactive)
- GI50 (CCRF-CEM): > 100 µM (inactive)
- GI50 (COLO 205): > 100 µM (inactive)
- GI50 (DU-145): > 100 µM (inactive)
- GI50 (EKVX): > 100 µM (inactive)
- GI50 (HCT-116): > 100 µM (inactive)
- GI50 (HCT-15): > 100 µM
- GI50 (HL-60): > 100 µM (inactive)
- GI50 (HOP-62): > 100 µM (inactive)
- GI50 (HOP-92): > 100 µM (inactive)
- GI50 (HT-29): > 100 µM (inactive)
- GI50 (Hs-578T): > 100 µM (inactive)
- GI50 (IGROV-1): > 100 µM (inactive)
- GI50 (K562): > 100 µM (inactive)
- GI50 (KM12): > 100 µM (inactive)
- GI50 (LOX IMVI): > 100 µM (inactive)
- GI50 (M14): > 100 µM (inactive)
- GI50 (MCF7): > 100 µM (inactive)
- GI50 (MDA-MB-231): > 100 µM (inactive)
- GI50 (MDA-MB-435): > 100 µM (inactive)
- GI50 (MDA-N): > 100 µM (inactive)
- GI50 (MOLT-4): > 100 µM (inactive)
- GI50 (Malme-3M): > 100 µM (inactive)
- GI50 (NCI-H226): > 100 µM (inactive)
- GI50 (NCI-H23): > 100 µM (inactive)
- GI50 (NCI-H460): > 100 µM (inactive)
- GI50 (NCI-H522): > 100 µM (inactive)
- GI50 (NCI/ADR-RES): > 100 µM (inactive)
- GI50 (OVCAR-3): > 100 µM (inactive)
- GI50 (OVCAR-4): > 100 µM (inactive)
- GI50 (OVCAR-5): > 100 µM (inactive)
- GI50 (OVCAR-8): > 100 µM (inactive)
- GI50 (PC-3): > 100 µM (inactive)
- GI50 (RPMI-8226): > 100 µM (inactive)
- GI50 (RXF 393): > 100 µM (inactive)
- GI50 (SF-268): > 100 µM (inactive)
- GI50 (SF-295): > 100 µM (inactive)
- GI50 (SF-539): > 100 µM (inactive)
- GI50 (SK-MEL-28): > 100 µM (inactive)
- GI50 (SK-MEL-2): > 100 µM (inactive)
- GI50 (SK-MEL-5): > 100 µM (inactive)
- GI50 (SN12C): > 100 µM (inactive)
- GI50 (SNB-19): > 100 µM (inactive)
- GI50 (SNB-75): > 100 µM (inactive)
- GI50 (SR): > 100 µM (inactive)
- GI50 (SW-620): 4.68 µM (inactive)
- GI50 (T47D): > 100 µM (inactive)
- GI50 (TK-10): > 100 µM (inactive)
- GI50 (U-251): > 100 µM (inactive)
- GI50 (UACC-257): > 100 µM (inactive)
- GI50 (UACC-62): > 100 µM (inactive)
- GI50 (UO-31): > 100 µM (inactive)

SMILES: CC(C)(C)NCc1cc(Nc2ccnc3cc(Cl)ccc23)cc(-c2ccc(Cl)cc2)c1O
- GI50 (786-0): 1.87 µM (inactive)
- GI50 (A498): 2.94 µM (inactive)
- GI50 (A549): 5.4 µM (inactive)
- GI50 (ACHN): 4.29 µM (inactive)
- GI50 (CAKI-1): 2.99 µM (inactive)
- GI50 (CCRF-CEM): 0.809 µM (active)
- GI50 (COLO 205): 1.81 µM (inactive)
- GI50 (DU-145): 4.53 µM (inactive)
- GI50 (EKVX): 3.72 µM (inactive)
- GI50 (HCC 2998): 2.21 µM (inactive)
- GI50 (HCT-116): 2.08 µM (inactive)
- GI50 (HCT-15): 2.44 µM
- GI50 (HL-60): 1.97 µM (inactive)
- GI50 (HOP-62): 2.06 µM (inactive)
- GI50 (HOP-92): 1.87 µM (inactive)
- GI50 (HT-29): 1.87 µM (inactive)
- GI50 (Hs-578T): 3.43 µM (inactive)
- GI50 (IGROV-1): 2.02 µM (inactive)
- GI50 (K562): 1.04 µM (active)
- GI50 (KM12): 3.5 µM (inactive)
- GI50 (LOX IMVI): 2.17 µM (inactive)
- GI50 (M14): 2.18 µM (inactive)
- GI50 (MCF7): 1.6 µM (inactive)
- GI50 (MDA-MB-231): 3 µM (inactive)
- GI50 (MDA-MB-435): 1.91 µM (inactive)
- GI50 (MDA-N): 1.68 µM (inactive)
- GI50 (MOLT-4): 1.82 µM (inactive)
- GI50 (Malme-3M): 1.84 µM (inactive)
- GI50 (NCI-H226): 6.12 µM (inactive)
- GI50 (NCI-H23): 3.64 µM (inactive)
- GI50 (NCI-H460): 2.03 µM (inactive)
- GI50 (NCI-H522): 3.65 µM (inactive)
- GI50 (NCI/ADR-RES): 3.05 µM (inactive)
- GI50 (OVCAR-3): 2.66 µM (inactive)
- GI50 (OVCAR-4): 3.36 µM (inactive)
- GI50 (OVCAR-5): 4.68 µM (inactive)
- GI50 (OVCAR-8): 3.81 µM (inactive)
- GI50 (PC-3): 1.99 µM (inactive)
- GI50 (RPMI-8226): 1.69 µM (inactive)
- GI50 (RXF 393): 1.79 µM (inactive)
- GI50 (SF-268): 3.48 µM (inactive)
- GI50 (SF-295): 2.5 µM (inactive)
- GI50 (SF-539): 1.85 µM (inactive)
- GI50 (SK-MEL-28): 1.72 µM (inactive)
- GI50 (SK-MEL-2): 2.24 µM (inactive)
- GI50 (SK-MEL-5): 1.77 µM (inactive)
- GI50 (SK-OV-3): 3.07 µM (inactive)
- GI50 (SN12C): 3.11 µM (inactive)
- GI50 (SNB-19): 4.44 µM (inactive)
- GI50 (SNB-75): 2.02 µM (inactive)
- GI50 (SR): 1.21 µM (inactive)
- GI50 (SW-620): 2.26 µM (inactive)
- GI50 (T47D): 3.27 µM (inactive)
- GI50 (TK-10): 2.43 µM (inactive)
- GI50 (U-251): 2.59 µM (inactive)
- GI50 (UACC-257): 2.03 µM (inactive)
- GI50 (UACC-62): 1.92 µM (inactive)
- GI50 (UO-31): 4.17 µM (inactive)
